According to patent US4902690A, “Pest controlling compositions” (The General Hospital Corporation, priority 1988, dated 1990):

Assays:
[1] = test system: tobacco hornworms (Manducca sexta); experiment: In vivo leaf test (feeding on sprayed tomato leaves)
[2] = test system: phosphodiesterase enzyme of hornworm nerve cord; experiment: PDE inhibitory activity, hornworm nerve tissue; format: biochemical, tobacco hornworm (Manducca sexta); conditions: FIG. 8
From the text: (§1) The ability of any compound (A) to inhibit phosphodiesterase (PDE) activity in broken cell preparations of firefly lantern or in pest tissues can be determined either (1) by measuring the decrease in rate of hydrolysis of an added amount of cyclic AMP by PDE (see Methods Section of Nathanson et al., Mol. Pharmacol. 12:390-398 (1975)), or (2) by measuring the rate of accumulation of one of the breakdown products of cyclic AMP, such as 5'-AMP or adenosine (see method of Filburn et al., Anal. Biochem. 52:505-516 (1973)). Both of these are herein incorporated by reference.
(§2) In this assay (modified slightly from Filburn and Karn (Analyt. Biochem. 52: 505-516 (1973)), the rate of hydrolysis of labeled cyclic AMP to 5'-AMP by PDE is measured by converting the breakdown product (5'-AMP) to adenosine, which can be separated and measured by alumina chromatography. Specifically, tissue from either the firefly lantern or pest is homogenized (10-20 mg/ml) in 6 mM Tris-maleate buffer, pH 7.4. The hydrolysis reaction is run in test tubes containing (in 100 microliters): 80 mM Tris maleate, pH 7.4; 6 mM MgSO4; 10 pmoles tritiated cyclic AMP (2×10^4 to 2×10^5 cpm, depending upon the activity of the enzyme); 20 microliters of tissue homogenate; and various concentrations of the compound to be tested. In those cases in which the compound is insoluble in aqueous solution at pH 7.4, pH can be varied between pH 6.5 and 9.0 for optimization of solubility. In addition, the test compound can be initially solubilized in either 100% methanol or DMSO and diluted to a final concentration of 10% methanol or DMSO in the assay (in which case solvent controls are run in parallel).
The reaction is started by the addition of homogenate, run for 4 min at 37° C., and terminated by boiling for 90 sec. […] The void volume is discarded and the column is then eluted with 2 ml of 0.1N ammonium acetate, pH 4.0, the eluent collected and counted by liquid scintillation spectrometry. […]

[3] = Level of PDE inhibitor compound in insects in vivo; design: species or system tobacco hornworms; conditions: feeding 72 hours on tomato leaves treated with a 1% spray of theophylline; read-out: internal concentration within the insects
Method: To determine this, tobacco hornworms were allowed to feed on tomato leaves treated with a 1% spray of theophylline. This concentration was chosen since it is an amount which, by itself, inhibits feeding in the tobacco hornworm (see FIG. 13). After 72 hours, worms (alive or dead) were removed, quickly rinsed of any compound adhering to their outside cuticle, and then homogenized. The homogenate was centrifuged at 2000×g for 5 minutes and the supernatant was assayed for theophylline concentration by a standard immunoenzymatic procedure (Emit-aad® Theophylline Assay, Syva Company, Palo Alto, Calif.). By this procedure, the internal concentration within the insects was determined to be 4.0 mM. From FIGS. 6,7 or 8 it will be seen that this concentration of theophylline is sufficient to cause at least 70% inhibition of PDE enzyme activity in vitro. The correspondence between in vitro and in vivo results is remarkably close and serves to further support the invention.

[4] = test system: Firefly phosphodiesterase enzyme; experiment: PDE inhibitory activity, firefly lantern; format: biochemical, firefly (Photinus pyralis)
From the text: as §1
Generally, any compound capable of maximally inhibiting PDE activity by at least 50% (Vmax -inhibition) and preferably by at least 80% is preferred. Also, in terms of the concentration of the compound required for such inhibition, this can be quantitated by determining the IC 50-inhibition, i.e., the concentration of the compound required to cause 50% of the maximal inhibitioncaused by the compound at any concentration.
as §2
The reaction is started by the addition of homogenate, run for 4 min at 37° C., and terminated by boiling for 90 sec. The 5'AMP formed is then converted to adenosine by the addition of 20 microliters of an aqueous solution of 0.5 Units/ml of 5'-nucleotidase (Sigma, Grade IV), vortexed, and incubated for 30 minutes at 37° C. The second reaction is stopped by addition of 0.4 ml of 0.1N ammonium acetate, pH 4.0. The entire sample is then applied to a 0.5×8 cm column containing neutral alumina prewashed with 20 ml of 0.1N ammonium acetate, pH 4.0. The void volume is discarded and the column is then eluted with 2 ml of 0.1N ammonium acetate, pH 4.0, the eluent collected and counted by liquid scintillation spectrometry. Activity is cpms above that due to a blank which was initially incubated for 0 seconds in the first reaction.

[5] = test system: PDE in tissue homogenate from tobacco hornworm nerve cord; experiment: Cyclic AMP analogue remaining after incubation with nerve cord homogenate; format: in vitro ADME, tobacco hornworm (Manducca sexta); conditions: IBMX 0.1 mM; 4 hours in vitro; FIG. 20
Method: It has been previously shown, above, that PDE inhibition can increase the concentration of cyclic AMP in insect tissue. […] In order to do this, a fixed amount of butyl-benzylthio cyclic AMP was incubated in vitro for 4 hours in the presence of a tissue homogenate from tobacco hornworm nerve cord. In some tubes, IBMX (0.1 mM) was added to inhibit PDE. After the incubation, the amount of butyl-benzylthio cyclic AMP remaining was measured by protein binding assay (Brown et al., supra), using a standard curve based upon butyl-benzylthio cyclic AMP.

Structure (SMILES) | % Leaf Remaining (increase over control) ([1]; 1% Theophylline alone) | pattern of PDE inhibition [2] | concentration [3] | phosphodiesterase inhibition ([4]; FIG. 6) | inhibition of PDE enzyme activity in vitro ([4]; theophylline 4.0 mM, read from FIGS. 6,7 or 8 (firefly or hornworm)) | antifeeding activity in the absence of IBMX ([1]; concentration of 1%, FIGS. 18, 19) | amount of butyl-benzylthio cyclic AMP present after 4 hours, effect of addition of IBMX [5]
Cn1c(=O)c2[nH]cnc2n(C)c1=O [theophylline] | 11% | quite similar to that in the firefly light organ | 4000 µM | active as phosphodiesterase inhibitors | at least 70% |  | 
CCCCNc1ncnc2c1nc(SCc1ccccc1)n2[C@@H]1O[C@@H]2COP(=O)(O)O[C@H]2[C@H]1O [n-butylaminobenzylthio cyclic AMP, 6-n-butylamino-8-benzylthio-cyclic AMP] |  |  |  |  |  | some antifeeding activity | more than doubled
